Test results from ChEMBL document CHEMBL4342440, “Potential cytotoxic and anti-metastatic effects of berberine on gynaecological cancers with drug-associated resistance” (Eur J Med Chem, 2020).

Legend:
HeLa [1] = experiment: Cytotoxicity against human HeLa cells measured after 48 hrs by SRB assay; type: functional, cell-based
Ca-Ski [2] = experiment: Cytotoxicity against human CaSki cells measured after 48 hrs by SRB assay; type: functional, cell-based
HeLa [3] = experiment: Cytotoxicity against human HeLa cells measured after 48 hrs by MTT assay; type: functional, cell-based
Ca-Ski [4] = experiment: Cytotoxicity against human CaSki cells measured after 48 hrs by MTT assay; type: functional, cell-based
[5] = Drug excretion in rat bile; type: ADME, tissue-based; conditions: read-out: Drug excretion
[6] = Drug excretion in rat feces; type: ADME, tissue-based; conditions: faeces, read-out: Drug excretion
Vero = experiment: Cytotoxicity against African green monkey Vero cells measured after 48 hrs by MTT assay; type: cell-based; conditions: Chlorocebus sabaeus
HeLa [7] = experiment: Induction of apoptosis in human HeLa cells measured at 40 mg/L after 48 hrs relative to control; type: functional
HeLa 229 = experiment: Cytotoxicity against human HeLa 229 cells measured after 48 hrs by MTT assay; type: functional, cell-based; conditions: HeLa 229, 48 h
[8] = Drug excretion in rat urine; type: ADME, tissue-based; conditions: read-out: Drug excretion
HeLa [9] = experiment: Induction of apoptosis in human HeLa cells measured at 20 mg/L after 48 hrs relative to control; type: functional

Row | Compound | IC50 (HeLa [1]) [µg/mL] | IC50 (Ca-Ski [2]) [µg/mL] | IC50 (HeLa [3]) [µg/mL] | other results
1 | COc1ccc2cc3[n+](cc2c1OCCCCCNc1nc2ccc([N+](=O)[O-])cc2s1)CCc1cc2c(cc1-3)OCO2.[Cl-] | 5.47 | 5.31 | – | –
2 | COc1cc(CN2CCN(c3ccccc3Cl)CC2)c2cc3[n+](cc2c1O)CCc1cc2c(cc1-3)OCO2.[Cl-] | – | – | < 6 | IC50 (Ca-Ski [4]): < 6 µg/mL
3 | COc1cc(CN2CCN(c3ccccc3F)CC2)c2cc3[n+](cc2c1O)CCc1cc2c(cc1-3)OCO2.[Cl-] | – | – | < 6 | IC50 (Ca-Ski [4]): < 6 µg/mL
4 | COc1ccc2cc3[n+](cc2c1OCCCCCNc1nc2ccc(C#N)cc2s1)CCc1cc2c(cc1-3)OCO2.[Cl-] | 5.47 | 5.31 | – | –
5 | COc1ccc2nc(NCCCCCOc3c(OC)ccc4cc5[n+](cc34)CCc3cc4c(cc3-5)OCO4)sc2c1.[Cl-] | 5.47 | 5.31 | – | –
6 | COc1cc(CN2CCN(c3ccc([N+](=O)[O-])cc3)CC2)c2cc3[n+](cc2c1O)CCc1cc2c(cc1-3)OCO2.[Cl-] | – | – | < 6 | IC50 (Ca-Ski [4]): < 6 µg/mL
7 | COc1ccc2cc3[n+](cc2c1OCCCCCNc1nc2ccc(Cl)cc2s1)CCc1cc2c(cc1-3)OCO2.[Cl-] | 5.47 | 5.31 | – | –
8 | COc1cc(CN2CCN(c3cccc(F)c3F)CC2)c2cc3[n+](cc2c1O)CCc1cc2c(cc1-3)OCO2.[Cl-] | 4.35 to 6.32 | 3.41 to 6.08 | – | –
9 | COc1cc(CN2CCN(c3cccc(Cl)c3Cl)CC2)c2cc3[n+](cc2c1O)CCc1cc2c(cc1-3)OCO2.[Cl-] | 4.35 to 6.32 | 3.41 to 6.08 | – | –
10 | COc1cc(CN2CCN(c3ccc(F)cc3F)CC2)c2cc3[n+](cc2c1O)CCc1cc2c(cc1-3)OCO2.[Cl-] | 4.35 to 6.32 | 3.41 to 6.08 | – | –
11 | COc1ccc2cc3[n+](cc2c1OCCCCCNc1nc2ccccc2s1)CCc1cc2c(cc1-3)OCO2.[Cl-] | 5.47 | 5.31 | – | –
12 | COc1cc(CN2CCN(c3ccc(C)cc3C)CC2)c2cc3[n+](cc2c1O)CCc1cc2c(cc1-3)OCO2.[Cl-] | 4.35 to 6.32 | 3.41 to 6.08 | – | –
13 | COc1cc(CN2CCN(c3ccc(OC(F)(F)F)cc3)CC2)c2cc3[n+](cc2c1O)CCc1cc2c(cc1-3)OCO2.[Cl-] | – | – | < 6 | IC50 (Ca-Ski [4]): < 6 µg/mL
14 | COc1cc(CN2CCN(c3ccc(C)cc3)CC2)c2cc3[n+](cc2c1O)CCc1cc2c(cc1-3)OCO2.[Cl-] | – | – | < 6 | IC50 (Ca-Ski [4]): < 6 µg/mL
15 | COc1ccc2cc3[n+](cc2c1OCCCCCNc1nc2ccc(Br)cc2s1)CCc1cc2c(cc1-3)OCO2.[Cl-] | 5.47 | 5.31 | – | –
16 | COc1ccc2cc3[n+](cc2c1OCCCCCNc1nc2c(F)cc(F)cc2s1)CCc1cc2c(cc1-3)OCO2.[Cl-] | 5.47 | 5.31 | – | –
17 | COc1cc(CN2CCN(c3ccccc3[N+](=O)[O-])CC2)c2cc3[n+](cc2c1O)CCc1cc2c(cc1-3)OCO2.[Cl-] | – | – | < 6 | IC50 (Ca-Ski [4]): < 6 µg/mL
18 | COc1ccc(N2CCN(Cc3cc(OC)c(O)c4c[n+]5c(cc34)-c3cc4c(cc3CC5)OCO4)CC2)c(OC)c1.[Cl-] | 4.35 to 6.32 | 3.41 to 6.08 | – | –

Row | Compound | IC50 (HeLa [1]) [µg/mL] | IC50 (Ca-Ski [2]) [µg/mL] | IC50 (HeLa [3]) [µg/mL] | other results
19 | COc1cc(CN2CCN(c3cccc(C)c3C)CC2)c2cc3[n+](cc2c1O)CCc1cc2c(cc1-3)OCO2.[Cl-] | 4.35 to 6.32 | 3.41 to 6.08 | – | –
20 | COc1ccc2cc3[n+](cc2c1OCCCCCNNc1nc2ccccc2s1)CCc1cc2c(cc1-3)OCO2.[Cl-] | 5.47 | 5.31 | – | –
21 | COc1cc(CN2CCN(c3ccc(F)cc3)CC2)c2cc3[n+](cc2c1O)CCc1cc2c(cc1-3)OCO2.[Cl-] | – | – | < 6 | IC50 (Ca-Ski [4]): < 6 µg/mL
22 | COc1ccc2cc3[n+](cc2c1OCCCCCNc1nc2ccc(I)cc2s1)CCc1cc2c(cc1-3)OCO2.[Cl-] | 5.47 | 5.31 | – | –
23 | COc1ccc2cc3[n+](cc2c1OCCCCCNc1nc2ccc(F)cc2s1)CCc1cc2c(cc1-3)OCO2.[Cl-] | 5.47 | 5.31 | – | –
24 | COc1cc(CN2CCN(c3cccc(Cl)c3)CC2)c2cc3[n+](cc2c1O)CCc1cc2c(cc1-3)OCO2.[Cl-] | – | – | < 6 | IC50 (Ca-Ski [4]): < 6 µg/mL
25 | COc1cc(CN2CCN(c3ccc(Cl)cc3Cl)CC2)c2cc3[n+](cc2c1O)CCc1cc2c(cc1-3)OCO2.[Cl-] | 4.35 to 6.32 | 3.41 to 6.08 | – | –
26 | COc1c(O)ccc2cc3[n+](cc12)CCc1cc2c(cc1-3)OCO2.[Cl-] [THALIFENDINE] | – | – | – | dose excreted [5]: 83%
27 | COc1cc(CN2CCN(c3ccc(Cl)c(Cl)c3)CC2)c2cc3[n+](cc2c1O)CCc1cc2c(cc1-3)OCO2.[Cl-] | 4.35 to 6.32 | 3.41 to 6.08 | – | –
28 | COc1cc(CN2CCN(c3cc(Cl)cc(Cl)c3)CC2)c2cc3[n+](cc2c1O)CCc1cc2c(cc1-3)OCO2.[Cl-] | 4.35 to 6.32 | 3.41 to 6.08 | – | –
29 | COc1cc(CN2CCN(c3ccc(C(F)(F)F)cc3)CC2)c2cc3[n+](cc2c1O)CCc1cc2c(cc1-3)OCO2.[Cl-] | – | – | < 6 | IC50 (Ca-Ski [4]): < 6 µg/mL
30 | COc1ccc2cc3[n+](cc2c1OC)CCc1cc2c(cc1-3)OCO2 [BERBERINE] | – | – | 12.1 | dose excreted [6]: 22.7%; IC50 (Vero): 71.1 µg/mL; Activity (HeLa [7]): 29.6%; dose excreted [5]: 22.8%; IC50 (HeLa 229): 42.9 µM; dose excreted [8]: 0.0939%; Activity (HeLa [9]): 16.7%
31 | COc1cc(CN2CCN(c3ccc(Cl)cc3)CC2)c2cc3[n+](cc2c1O)CCc1cc2c(cc1-3)OCO2.[Cl-] | – | – | < 6 | IC50 (Ca-Ski [4]): < 6 µg/mL
32 | COc1ccc2cc3[n+](cc2c1OCCCCCNc1nc2ccc(C(F)(F)F)cc2s1)CCc1cc2c(cc1-3)OCO2.[Cl-] | 5.47 | 5.31 | – | –
33 | COc1ccc2cc3[n+](cc2c1OCCCCCNc1nc2ccc(C(=O)O)cc2s1)CCc1cc2c(cc1-3)OCO2.[Cl-] | 5.47 | 5.31 | – | –
34 | COc1ccc2cc3[n+](cc2c1OCCCCCNc1nc2ccc(C)cc2s1)CCc1cc2c(cc1-3)OCO2.[Cl-] | 5.47 | 5.31 | – | –
35 | CCOc1ccc2nc(NCCCCCOc3c(OC)ccc4cc5[n+](cc34)CCc3cc4c(cc3-5)OCO4)sc2c1.[Cl-] | 5.47 | 5.31 | – | –
